The record followed here is US20050137185A1, “Combinations of drugs for the treatment of neoplasms” (priority 2003, published 2005).

This experiment deals with HCT116 cells. Put plainly: Anti-proliferation assay (Alamar Blue metabolism). It counts as cell-based. As to conditions: Homo sapiens, read-out: Percent inhibition of Alamar Blue Metabolism in HCT116 cells; for inhibition at 5 µM: HCT-116, chlorpromazine 5 μM; for inhibition at 10 µM: HCT-116, chlorpromazine 10 μM; for inhibition at 40 µM: HCT-116, chlorpromazine 40 μM. The protocol:
Stock solutions (1000×) of each compound were prepared in DMSO and stored at −20° C. Master stock plates of 2-fold or 4-fold serial dilutions of individual compounds were prepared in 384-well plates. Combination matrices of test compounds were generated from these master stock plates by dilution into growth media described above. […] The combination matrices were used immediately and discarded.
The anti-proliferation assays were performed in 384-well plates. […] Cells were diluted in culture media such that 1500 cells were delivered in 40 μL of media into each assay well. […] 10× stock solutions (4.5 μL) from the combination matrices were added to 40 μL of culture media in assay wells. Assay plates were incubated for 72-80 hours at 37±0.5° C. with 5% CO2. […] Alamar Blue metabolism was quantified by the amount of fluorescence intensity 3.5-5.0 hours after addition. Quantification, using an LJL Analyst AD reader (LJL Biosystems), was taken in the middle of the well with high attenuation, a 100 msec read time, an excitation filter at 530 nm, and an emission filter at 575 nm. For some experiments, quantification was performed using a Wallac Victor^2 reader. Measurements were taken at the top of the well with stabilized energy lamp control; a 100 msec read time, an excitation filter at 530 nm, and an emission filter at 590 nm.

Where two headings read alike, the source gives them in different places.

With `CN(C)/N=N/c1[nH]cnc1C(N)=O` [Dacarbazine, dacarbazine], the inhibition at 14 µM (HCT-116, chlorpromazine 0 μM, dacarbazine 14 μM) stood at 42.6%. For the same compound, the inhibition at 27 µM (HCT-116, chlorpromazine 0 μM, dacarbazine 27 μM) amounted to 64.6%. The inhibition at 55 µM (HCT-116, chlorpromazine 0 μM, dacarbazine 55 μM) came out at 74.2%.
Take `COc1cc2ncnc(Nc3cccc(Cl)c3)c2cc1OC` [Tyrphostin 1486, Tyrphostin AG1478]: under “HCT-116, chlorpromazine 0 μM, tyrphostin 1486 13 μM”, the inhibition at 13 µM came to 78.7%. Besides, the inhibition at 26 µM (HCT-116, chlorpromazine 0 μM, tyrphostin 1486 26 μM) is 81.4%. The inhibition at 51 µM (HCT-116, chlorpromazine 0 μM, tyrphostin 1486 51 μM) worked out at 81.3%.
Take `CCC1=C[C@@H]2CN(C1)Cc1c([nH]c3ccccc13)[C@@](C(=O)OC)(c1cc3c(cc1OC)N(C)[C@H]1[C@@](O)(C(=O)OC)[C@H](OC(C)=O)[C@]4(CC)C=CCN5CC[C@]31[C@@H]54)C2` [Vinorelbine, vinorelbine]: under “HCT-116, chlorpromazine 0 μM, vinorelbine 0.004 μM”, the inhibition at 0.004 µM was -8.91%. For the same compound, for the setting “HCT-116, chlorpromazine 0 μM, vinorelbine 0.008 μM”, the inhibition at 0.008 µM was 42.1%.
For the compound `CN(C)CCCN1c2ccccc2Sc2ccc(Cl)cc21` [Chlorpromazine, chlorpromazine], the inhibition at 7 µM (HCT-116, 72 h, chlorpromazine 7 μM, tyrphostin 1486 0 μM) was -18.6%. The inhibition at 14 µM (HCT-116, 72 h, chlorpromazine 14 μM, tyrphostin 1486 0 μM) was -12.5%. Moreover, the inhibition at 28 µM (HCT-116, 72 h, chlorpromazine 28 μM, tyrphostin 1486 0 μM) was found to be 62.2%. The inhibition at 56 µM (HCT-116, 72 h, chlorpromazine 56 μM, tyrphostin 1486 0 μM) stood at 85.6%. The inhibition at […] is, setting by setting: (HCT-116, 72 h, chlorpromazine […], tyrphostin 1486 0 μM) 95.9%; (HCT-116, chlorpromazine […], dacarbazine 0 μM) 4.03%; (HCT-116, chlorpromazine […], docetaxel 0 μM) -12.2%; (HCT-116, chlorpromazine […], floxuridine 0 μM) -0.0804%; (HCT-116, chlorpromazine […], hydroxycamptothecin 0 μM) -8.14%; (HCT-116, chlorpromazine […], leucovorin 0 μM) -0.0253%. The inhibition at […] was 10.1% (HCT-116, chlorpromazine […], paclitaxel 0 μM); -20% (HCT-116, chlorpromazine […], vinblastine 0 μM); -0.591% (HCT-116, chlorpromazine […], vinorelbine 0 μM). Also, the inhibition at 5 µM was 17% (dacarbazine 0 μM); 2.8% (docetaxel 0 μM); 3.53% (floxuridine 0 μM); 24% (hydroxycamptothecin 0 μM); -4.39% (leucovorin 0 μM); -11.8% (paclitaxel 0 μM). In addition, the inhibition at 5 µM reads like this: (vinblastine 0 μM) -20%; (vinorelbine 0 μM) -20%. Further, the inhibition at 10 µM reads like this: (dacarbazine 0 μM) 54.6%; (docetaxel 0 μM) 84.8%; (floxuridine 0 μM) 65.4%; (hydroxycamptothecin 0 μM) 84%; (leucovorin 0 μM) 3.27%; (paclitaxel 0 μM) 56.2%. For the same compound, the inhibition at 10 µM amounted to 50.8% (vinblastine 0 μM) and 60% (vinorelbine 0 μM). In addition, the inhibition at 20 µM (HCT-116, chlorpromazine 20 μM, docetaxel 0 μM) was determined as 91.9%; the inhibition at 20 µM (HCT-116, chlorpromazine 20 μM, floxuridine 0 μM) was determined as 88.5%; the inhibition at 20 µM (HCT-116, chlorpromazine 20 μM, hydroxycamptothecin 0 μM) came to 88.2%; the inhibition at 20 µM (HCT-116, chlorpromazine 20 μM, leucovorin 0 μM) was determined as 80.9%; the inhibition at 20 µM (HCT-116, chlorpromazine 20 μM, paclitaxel 0 μM) worked out at 87%; the inhibition at 20 µM (HCT-116, chlorpromazine 20 μM, vinblastine 0 μM) was 85.8%. Further, the inhibition at 20 µM (HCT-116, chlorpromazine 20 μM, vinorelbine 0 μM) is 88.4%. Also, the inhibition at 40 µM came to 95.8% (dacarbazine 0 μM); 95.7% (docetaxel 0 μM); 95.7% (floxuridine 0 μM); 95.8% (hydroxycamptothecin 0 μM); 95.6% (leucovorin 0 μM); 95.7% (paclitaxel 0 μM). Besides, the inhibition at 40 µM is, setting by setting: (vinblastine 0 μM) 94.5%; (vinorelbine 0 μM) 94.7%.
Consider `Nc1nc2c(c(=O)[nH]1)N(C=O)C(CNc1ccc(C(=O)N[C@@H](CCC(=O)O)C(=O)O)cc1)CN2` (some centres unmarked) [Leucovorin, leucovorin], for which, under “HCT-116, chlorpromazine 0 μM, leucovorin 20 μM”, the inhibition at 20 µM is -11.5%.

Usually inhibition stands for the relative decrease from the control value, in per cent.
